These results are taken from patent publication US20130130903A1, “Suppression of Foliar and Soilborne Pathogens” (priority 2003, published 2013).

One test relates to non-inoculated wheat. In words: Field yield of non-inoculated spring wheat after herbicide treatment. It is filed as in vivo. Particulars: for Yield: 2002, non-inoculated, glyphosate on glyphosate res. wheat, Buctril/Harmony on sensitive wheat. The text has this: (§1) This example describes the response of glyphosate resistant and glyphosate sensitive spring wheat to inoculation with soil pathogens as judged by wheat yield. Inoculation simulates the green-bridge effect of dying weeds and volunteer in a standing wheat crop. The soil pathogens assessed were: Rhizoctonia solani isolate AG-8 and Gaeumannomyces graminis var. tritici. These pathogenic strains are prevalent in the Pacific Northwest and were isolated from the region. They have been maintained by the Department of Plant Pathology and USDA researchers at Washington State University.
(§2) Near isogenic lines (glyphosate resistant and glyphosate sensitive) of Westbred 926 and Bobwhite were seeded using a no-till drill at three different sites (Lind, Davenport and Pullman, Wash.).
(§3) To introduce the root pathogens into the wheat seed for distribution into the field, oat seeds, autoclaved and sterilized, were inoculated for each soilborne pathogen using isolated pathogen cultures. Oat seeds that were non-inoculated, but sterilized and autoclaved, served as a control. Following two weeks of pathogen growth, the inoculated oat seeds were dried down for 2 days and screened for potential contamination. To establish a green-bridge, a mixture of 15% barley and 20% oat inoculum seeds (by weight) were planted using a small plot no-till drill. One week after planting the introduced green-bridge, the wheat isolines were planted in rows adjacent to the barley green-bridge rows in a randomized, split-plot design, replicated in five randomized blocks. Inoculum treatment served as the main plot, and response to herbicides as the subplot factor.
(§4) This example describes the effect of herbicide treatment on spring wheat, averaged over all disease treatments, planted as described in Example 1. The appropriate herbicide was applied to each trial once the plants reached the 4-5 leaf stage with a custom built hand-pulled sprayer outfitted with a boom with a length of 16 feet with spray shields on the side to minimize drift. In this manner, an entire plot was treated at once with the appropriate herbicide rate. Entries that were resistant to glyphosate were treated with ROUNDUP® brand herbicide (0.63 kg/ha), available from Monsanto, St. Louis, Mo. Herbicide sensitive and resistant entries were treated with a common broadleaf herbicide treatment (Buctril/Harmony) or a no-spray control. Introduced green-bridge barley and any other weeds were manually removed 7-10 days after spray treatment to simulate the time required for ROUNDUP to take effect and maintained weed-free conditions to provide an accurate comparison to commercial weed management strategies needed to assess potential herbicide/disease interactions. […]

Test [1] has as its system Rhizoctonia solani isolate AG-8. In words: Field yield of Rhizoctonia inoculated spring wheat after herbicide treatment. It is filed as in vivo. The note with it: for Yield: glyphosate on glyphosate res. wheat, Buctril/Harmony on sensitive wheat.
Description: as §1, §2, §3, §4

In another test the test system is Ggt. The note with it: New Zealand studies; green-bridge effect on couch grass; cited from earlier work.
The test system of another test is soybean rust. In words: Suppression of soybean rust on glyphosate resistant soybean lines. It is filed as in vivo. From the text: This example describes the suppression of soybean rust using glyphosate treatment of glyphosate resistant soybean varieties.
Two different Roundup Ready soybean lines were used: Line 1 (purple flowers/grey pubescence) and Line 2 (white flowers/grey pubescence). Both lines are glyphosate resistant and have been classified as maturity group 3, with white or purple flowers and grey pubescence. The following treatments were used:
Treatment 1: No glyphosate spray before or after inoculation
Treatment 2: One application of glyphosate (48 oz./A) ([…] of active ingredient) three days before inoculation
Treatment 3: Twice the amount of glyphosate as in Treatment 2 (96 oz./A) ([…] of active ingredient) applied three days before inoculation
Treatment 4: One application of glyphosate (48 oz./A) three days before inoculation, and one application (48 oz./A) (1.5 kg/ha of active ingredient) when symptoms of soybean rust first appeared.
Treatment 5: No glyphosate spray before inoculation, and one application (48 oz./A) (1.5 kg/ha of active ingredient) when symptoms of soybean rust first appeared.

A further test relates to stripe rust. Briefly: Bobwhite NILs under natural stripe rust infection, Pullman 2002. It is filed as in vivo, Puccinia striiformis. Particulars: for Yield: Pullman 2002, cultivar Bobwhite (res.).
Description: as §1, §2, §3
(§5) This example describes the effect of herbicide treatment on spring wheat, averaged over all disease treatments, planted as described in Example 1. The appropriate herbicide was applied to each trial once the plants reached the 4-5 leaf stage with a custom built hand-pulled sprayer outfitted with a boom with a length of 16 feet with spray shields on the side to minimize drift. In this manner, an entire plot was treated at once with the appropriate herbicide rate. Entries that were resistant to glyphosate were treated with ROUNDUP® brand herbicide (0.63 kg/ha), available from Monsanto, St. Louis, Mo. Herbicide sensitive and resistant entries were treated with a common broadleaf herbicide treatment (Buctril/Harmony) or a no-spray control. Introduced green-bridge barley and any other weeds were manually removed 7-10 days after spray treatment to simulate the time required for ROUNDUP to take effect and maintained weed-free conditions to provide an accurate comparison to commercial weed management strategies needed to assess potential herbicide/disease interactions.
This example describes the effect of herbicides on natural stripe rust infection of NILs of Bobwhite with and without glyphosate tolerance. The wheat was seeded and inoculated with Rhizoctonia and Ggt as described in Example 1. The yield results from the Pullman site are recorded in Table 6.

The test system of the next test is R. solani. The note with it: cited from earlier work.
Test [2] deals with Rhizoctonia solani isolate AG-8 and Gaeumannomyces graminis var. tritici (averaged over all fungal inoculation treatments). In words: Field yield of spring wheat after herbicide treatment, averaged over all fungal inoculation treatments. The note with it: for Yield: glyphosate (ROUNDUP 0.63 kg/ha) on glyphosate res. wheat, Buctril/Harmony on sensitive wheat, 4-5 leaf stage. It is filed as in vivo.
Description: as §1, §2, §3, §5

The structures appear in SMILES notation. Read-outs that look alike come from different tables or passages of the source.

Take `O=C(O)CNCP(=O)(O)O` [glyphosate, N-phosphonomethylglycine]: the Yield is listed as 29.1 bu/acre in the test on non-inoculated wheat (Davenport); 14.2 bu/acre with non-inoculated wheat (Lind); 55.6 bu/acre in the test on non-inoculated wheat (Pullman); 29.0 bu/acre in test [1] (Davenport); 14.0 bu/acre in test [1] (Lind); 53.9 bu/acre in test [1] (Pullman). In addition, the Yield with stripe rust (inoculation Ggt) was 49.0 bu/acre; with stripe rust (inoculation None), 44.9 bu/acre; in the test with stripe rust (inoculation Rhizoctonia), 40.0 bu/acre; in test [2] (Davenport) it was 28.9 bu/acre; in test [2] (Lind), 14.2 bu/acre; in test [2] (Pullman), 56.5 bu/acre. In addition, the “yield of glyphosate-resistant wheat lines” value in the test on non-inoculated wheat (in the absence of additional pathogen inoculum) is “increases yield”. For the same molecule, the “yield relative to untreated and Buctril/Harmony treated glyphosate sensitive wheat” value in test [1] (glyphosate resistant wheat) is given as “enhanced yield at each location”. Besides, the “levels of infection of cereals with Ggt” value in the test with Ggt was “increases the levels of infection with Ggt”. In addition, the “effect on soy rust” value in the test with soybean rust (treatments 2 and 3: 48 oz./A or 96 oz./A three days before inoculation) is listed as “dose-dependent effect on soy rust”. Besides, the “effect on soybean infected with soy rust” value with soybean rust (treatments 4 and 5: 48 oz./A when symptoms of soybean rust first appeared) is recorded as “curative effect”. The stripe rust symptoms result in the test on stripe rust (Bobwhite cultivars under severe stripe rust conditions) is recorded as “only moderate stripe rust symptoms”. Besides, the “yields of glyphosate resistant Bobwhite NILs” value with stripe rust (regardless of what pathogen had been introduced) is listed as “superior yields”. Further, the “grain yields of glyphosate-sensitive barley under R. solani” value with R. solani (glyphosate applied in the fall or three weeks prior to planting) is given as “no significant yield depression”; with R. solani (glyphosate applied three days before planting), “significantly reduced grain yields”. In addition, the “grain produced versus glyphosate sensitive NILs treated with Buctril/Harmony Extra or the no spray control” value in test [2] (RoundUp Ready spring wheat, regardless of disease treatment or location) was “significantly (P=0.001) more grain”. In addition, the “yield of glyphosate resistant wheat versus other treatments” value in test [2] (Table 2, each trial) is given as “higher yields in each trial”.
